Reference: patent US10988477B2 (Merck Patent GmbH, priority 2018, dated 2021)

Legend:
[1] = molecular target: GCN2 kinase (Homo sapiens, UniProt Q9P2K8); experiment: GCN2 enzyme inhibition assay (Transcreener ADP2 fluorescence polarization); assay type: biochemical; conditions: compounds of Formula II; 280 μM ATP, 4 nM GCN2 kinase
In short: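 Kinase activity is followed as ADP formation, measured by fluorescence polarization, using 4 nM enzyme with 280 μM ATP and 200 μM (RS)7 peptide at pH 7.5 and 25 °C for 1 h. Values come from a non-linear tight-binding fit.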

[2] = molecular target: intracellular GCN2 (phosphorylation of the GCN2 substrate eIF2α) (Homo sapiens, UniProt Q9P2K8); experiment: GCN2 cellular inhibition assay (AlphaScreen SureFire P-eIF2α Ser51, borrelidin-treated U2OS cells); assay type: cell-based; conditions: compounds of Formula II; biomarker assay, phosphorylated eIF2α Ser51 in borrelidin-treated U2OS cells
In short: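 Borrelidin at 10 μM is added to U2OS cells immediately after compound (4-fold dilution series, 40 μM top final) for 1 h at 37 °C. Phosphorylated eIF2α Ser51 in lysates is quantified by AlphaScreen and expressed as percent inhibition against borrelidin-stimulated controls.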

Sequence of intracellular GCN2 (phosphorylation of the GCN2 substrate eIF2α) (Q9P2K8 whole entry): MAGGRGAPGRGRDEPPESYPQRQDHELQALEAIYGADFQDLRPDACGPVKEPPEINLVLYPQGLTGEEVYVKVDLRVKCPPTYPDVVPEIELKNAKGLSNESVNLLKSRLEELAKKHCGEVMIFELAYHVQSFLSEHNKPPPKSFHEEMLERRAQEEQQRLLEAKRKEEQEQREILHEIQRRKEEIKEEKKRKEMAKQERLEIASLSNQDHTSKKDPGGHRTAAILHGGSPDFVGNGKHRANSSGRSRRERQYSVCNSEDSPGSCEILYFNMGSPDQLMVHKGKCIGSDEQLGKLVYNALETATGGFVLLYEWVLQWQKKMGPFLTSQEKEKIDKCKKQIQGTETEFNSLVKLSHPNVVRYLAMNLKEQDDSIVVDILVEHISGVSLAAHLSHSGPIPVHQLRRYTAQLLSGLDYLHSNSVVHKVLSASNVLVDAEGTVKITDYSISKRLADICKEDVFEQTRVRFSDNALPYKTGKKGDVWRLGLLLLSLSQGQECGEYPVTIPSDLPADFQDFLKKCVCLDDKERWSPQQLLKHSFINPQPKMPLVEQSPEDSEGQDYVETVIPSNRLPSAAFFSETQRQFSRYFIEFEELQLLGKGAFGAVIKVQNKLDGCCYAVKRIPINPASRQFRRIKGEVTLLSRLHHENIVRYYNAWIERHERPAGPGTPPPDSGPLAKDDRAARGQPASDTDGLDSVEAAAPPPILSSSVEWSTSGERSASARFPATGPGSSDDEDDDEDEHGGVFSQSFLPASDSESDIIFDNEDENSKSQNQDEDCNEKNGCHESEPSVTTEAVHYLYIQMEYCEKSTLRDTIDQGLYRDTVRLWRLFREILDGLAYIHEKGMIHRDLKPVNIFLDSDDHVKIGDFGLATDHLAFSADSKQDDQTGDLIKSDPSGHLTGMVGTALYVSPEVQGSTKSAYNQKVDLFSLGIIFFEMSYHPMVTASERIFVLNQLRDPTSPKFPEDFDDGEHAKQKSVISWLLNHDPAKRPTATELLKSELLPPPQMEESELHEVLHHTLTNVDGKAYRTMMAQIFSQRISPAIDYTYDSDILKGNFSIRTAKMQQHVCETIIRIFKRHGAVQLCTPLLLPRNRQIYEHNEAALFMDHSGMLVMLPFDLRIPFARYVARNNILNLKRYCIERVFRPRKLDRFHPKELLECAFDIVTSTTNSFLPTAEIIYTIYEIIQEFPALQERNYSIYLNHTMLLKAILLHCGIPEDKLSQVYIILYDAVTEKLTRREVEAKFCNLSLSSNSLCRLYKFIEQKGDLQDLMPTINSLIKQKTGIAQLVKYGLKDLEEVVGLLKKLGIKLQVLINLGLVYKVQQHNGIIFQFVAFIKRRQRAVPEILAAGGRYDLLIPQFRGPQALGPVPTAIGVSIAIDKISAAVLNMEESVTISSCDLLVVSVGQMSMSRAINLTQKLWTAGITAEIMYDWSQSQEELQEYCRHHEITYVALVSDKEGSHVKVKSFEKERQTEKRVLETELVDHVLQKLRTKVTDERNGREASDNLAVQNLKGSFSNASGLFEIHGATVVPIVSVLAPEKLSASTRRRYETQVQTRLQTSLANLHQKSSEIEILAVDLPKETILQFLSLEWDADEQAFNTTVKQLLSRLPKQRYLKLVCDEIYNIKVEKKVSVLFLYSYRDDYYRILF
Sequence of GCN2 kinase (Q9P2K8 whole entry): as above

| SMILES | Ki [1] | IC50 [2] |
| --- | --- | --- |
| O=C1CCN(c2cc(-c3cnc4ccc(C(F)F)nn34)ncn2)CCN1 [II-15, 1-(6-(6-(Difluoromethyl)imidazo[1,2-b]pyridazin-3-yl)pyrimidin-4-yl)-1,4-diazepan-5-one] | 10 to 1000 nM | > 5000 nM |
| NC(=O)C1CN(c2cc(-c3cnc4ccc(C(F)F)nn34)ncn2)c2ccccc21 (centres unmarked) [II-16, 1-(6-(6-(Difluoromethyl)imidazo[1,2-b]pyridazin-3-yl)pyrimidin-4-yl)indoline-3-carboxamide] | 10 to 1000 nM | > 5000 nM |
| CS(=O)(=O)NCCC1CCN(c2cc(-c3cnc4ccc(C(F)F)nn34)ncn2)C1 (centres unmarked) [II-17, N-(2-(1-(6-(6-(Difluoromethyl)imidazo[1,2-b]pyridazin-3-yl)pyrimidin-4-yl)pyrrolidin-3-yl)ethyl)methanesulfonamide] | 10 to 1000 nM | 500 to 5000 nM |
| CC1CN(c2cc(-c3cnc4ccc(C(F)F)nn34)ncn2)CC1CNS(C)(=O)=O (centres unmarked) [II-18, N-((1-(6-(6-(Difluoromethyl)imidazo[1,2-b]pyridazin-3-yl)pyrimidin-4-yl)-4-methylpyrrolidin-3-yl)methyl)methanesulfonamide] | < 10 nM | < 500 nM |
| CS(=O)(=O)C1CCCN(c2cc(-c3cnc4ccc(C(F)F)nn34)ncn2)C1 (centres unmarked) [II-19, 6-(Difluoromethyl)-3-(6-(3-(methylsulfonyl)piperidin-1-yl)pyrimidin-4-yl)imidazo[1,2-b]pyridazine] | 10 to 1000 nM | 500 to 5000 nM |
| FC(F)c1ccc2ncc(-c3cc(N4CCc5ccccc54)ncn3)n2n1 [II-20, 6-(Difluoromethyl)-3-(6-(indolin-1-yl)pyrimidin-4-yl)imidazo[1,2-b]pyridazine] | 10 to 1000 nM | > 5000 nM |
| CS(=O)(=O)N1CCCC(c2cc(-c3cnc4ccc(C(F)F)nn34)ncn2)C1 (centres unmarked) [II-21, 6-(Difluoromethyl)-3-(6-(1-(methylsulfonyl)piperidin-3-yl)pyrimidin-4-yl)imidazo[1,2-b]pyridazine] | 10 to 1000 nM | > 5000 nM |
| CS(=O)(=O)N1CCCN(c2cc(-c3cnc4ccc(C(F)F)nn34)ncn2)CC1 [II-22, 6-(Difluoromethyl)-3-(6-(4-(methylsulfonyl)-1,4-diazepan-1-yl)pyrimidin-4-yl)imidazo[1,2-b]pyridazine] | 10 to 1000 nM | > 5000 nM |
| NS(=O)(=O)N1CCCN(c2cc(-c3cnc4ccc(C(F)F)nn34)ncn2)CC1 [II-24, 4-(6-(6-(Difluoromethyl)imidazo[1,2-b]pyridazin-3-yl)pyrimidin-4-yl)-1,4-diazepane-1-sulfonamide] | 10 to 1000 nM | > 5000 nM |
| CS(=O)(=O)NC[C@@H]1CN(c2cc(-c3cnc4ccc(C(F)F)nn34)ncn2)CC(=O)N1 [II-25, (S)—N-((4-(6-(6-(Difluoromethyl)imidazo[1,2-b]pyridazin-3-yl)pyrimidin-4-yl)-6-oxopiperazin-2-yl)methyl)methanesulfonamide] | 10 to 1000 nM | > 5000 nM |
| CN=S(C)(=O)CC1CCCN(c2cc(-c3cnc4ccc(C(F)F)nn34)ncn2)C1 (centres unmarked) [II-26, [1-[6-[6-(Difluoromethyl)imidazo[1,2-b]pyridazin-3-yl]pyrimidin-4-yl]-3-piperidyl]methyl-methyl-methylimino-oxo-sulfane] | 10 to 1000 nM | > 5000 nM |
| Clc1ccc2ncc(-c3ccnc(-c4ccccc4)c3)n2n1 [II-27, 6-Chloro-3-(2-phenylpyridin-4-yl)imidazo[1,2-b]pyridazine] | 10 to 1000 nM | > 5000 nM |
| FC(F)c1ccc2ncc(-c3cc(N4Cc5ccncc5C4)ncn3)n2n1 [II-28, 3-(6-(1H-Pyrrolo[3,4-c]pyridin-2(3H)-yl)pyrimidin-4-yl)-6-(difluoromethyl)imidazo[1,2-b]pyridazine] | 10 to 1000 nM | < 500 nM |
| FC(F)c1ccc2ncc(-c3cc(N4CCOC(Cn5cnnc5)C4)ncn3)n2n1 (centres unmarked) [II-29, 2-((4H-1,2,4-Triazol-4-yl)methyl)-4-(6-(6-(difluoromethyl)imidazo[1,2-b]pyridazin-3-yl)pyrimidin-4-yl)morpholine] | 10 to 1000 nM | > 5000 nM |
| N#CCC(=O)N1CCCC(c2cc(-c3cnc4ccc(C(F)F)nn34)ncn2)C1 (centres unmarked) [II-30, 3-(3-(6-(6-(Difluoromethyl)imidazo[1,2-b]pyridazin-3-yl)pyrimidin-4-yl)piperidin-1-yl)-3-oxopropanenitrile] | 10 to 1000 nM | 500 to 5000 nM |
| CC1CN(c2cc(-c3cnc4ccc(C(F)F)nn34)ncn2)CC(CNS(C)(=O)=O)O1 (centres unmarked) [II-31, N-((4-(6-(6-(Difluoromethyl)imidazo[1,2-b]pyridazin-3-yl)pyrimidin-4-yl)-6-methylmorpholin-2-yl)methyl)methanesulfonamide] | < 10 nM | < 500 nM |

| SMILES | Ki [1] | IC50 [2] |
| --- | --- | --- |
| CC1CN(c2cc(-c3cnc4ccc(C(F)F)nn34)ncn2)CC(CNS(C)(=O)=O)O1 (centres unmarked) [II-32, N-((4-(6-(6-(Difluoromethyl)imidazo[1,2-b]pyridazin-3-yl)pyrimidin-4-yl)-6-methylmorpholin-2-yl)methyl)methanesulfonamide] | < 10 nM | < 500 nM |
| CC1CN(c2cc(-c3cnc4ccc(C(F)F)nn34)ncn2)CC(CNS(C)(=O)=O)O1 (centres unmarked) [II-33, N-((4-(6-(6-(Difluoromethyl)imidazo[1,2-b]pyridazin-3-yl)pyrimidin-4-yl)-6-methylmorpholin-2-yl)methyl)methanesulfonamide] | < 10 nM | < 500 nM |
| CS(=O)(=O)NC[C@@H]1CN(c2cc(-c3cnc4ccc(C(F)F)nn34)ncn2)CCO1 [II-34, (S)—N-((4-(6-(6-(Difluoromethyl)imidazo[1,2-b]pyridazin-3-yl)pyrimidin-4-yl)morpholin-2-yl)methyl)methanesulfonamide] | < 10 nM | < 500 nM |
| CC1CN(c2cc(-c3cnc4ccc(C(F)F)nn34)ncn2)CC(CNS(C)(=O)=O)C1(F)F (centres unmarked) [II-35, N-((1-(6-(6-(Difluoromethyl)imidazo[1,2-b]pyridazin-3-yl)pyrimidin-4-yl)-4,4-difluoro-5-methylpiperidin-3-yl)methyl)methanesulfonamide] | 10 to 1000 nM | 500 to 5000 nM |
| C[C@H]1CN(c2cc(-c3cnc4ccc(C(F)F)nn34)ncn2)C[C@@H](CNS(C)(=O)=O)C1(F)F [II-36, N-[[(3S,5S)-1-[6-[6-(Difluoromethyl)imidazo[1,2-b]pyridazin-3-yl]pyrimidin-4-yl]-4,4-difluoro-5-methyl-3-piperidyl]methyl]methanesulfonamide] | < 10 nM | < 500 nM |
| CS(=O)(=O)N1CCN2CCN(c3cc(-c4cnc5ccc(C(F)F)nn45)ccn3)CC2C1 (centres unmarked) [II-37, 2-(4-(6-(Difluoromethyl)imidazo[1,2-b]pyridazin-3-yl)pyridin-2-yl)-8-(methylsulfonyl)octahydro-1H-pyrazino[1,2-a]pyrazine] | 10 to 1000 nM | 500 to 5000 nM |
| FC(F)c1ccc2ncc(-c3ccnc(N4CCN5CCNCC5C4)c3)n2n1 (centres unmarked) [II-38, 2-(4-(6-(Difluoromethyl)imidazo[1,2-b]pyridazin-3-yl)pyridin-2-yl)octahydro-1H-pyrazino[1,2-a]pyrazine] | 10 to 1000 nM | > 5000 nM |
| CS(=O)(=O)NCC1CC(O)CN(c2cc(-c3cnc4ccc(C(F)F)nn34)ccn2)C1 (centres unmarked) [II-39, N-((1-(4-(6-(Difluoromethyl)imidazo[1,2-b]pyridazin-3-yl)pyridin-2-yl)-5-hydroxypiperidin-3-yl)methyl)methanesulfonamide] | 10 to 1000 nM | 500 to 5000 nM |
| CS(=O)(=O)NCC1CC(O)CN(c2cc(-c3cnc4ccc(C(F)F)nn34)ccn2)C1 (centres unmarked) [II-40, N-((1-(4-(6-(Difluoromethyl)imidazo[1,2-b]pyridazin-3-yl)pyridin-2-yl)-5-hydroxypiperidin-3-yl)methyl)methanesulfonamide] | < 10 nM | < 500 nM |
| Cn1cc(C(=O)N2CCCC(c3cc(-c4cnc5ccc(C(F)F)nn45)ncn3)C2)cn1 (centres unmarked) [II-41, (3-(6-(6-(Difluoromethyl)imidazo[1,2-b]pyridazin-3-yl)pyrimidin-4-yl)piperidin-1-yl)(1-methyl-1H-pyrazol-4-yl)methanone] | 10 to 1000 nM | 500 to 5000 nM |
| CS(=O)(=O)N1CCC2(CCN2c2cncc(-c3cnc4ccc(C(F)F)nn34)c2)CC1 [II-42, 6-(Difluoromethyl)-3-(5-(7-(methylsulfonyl)-1,7-diazaspiro[3.5]nonan-1-yl)pyridin-3-yl)imidazo[1,2-b]pyridazine] | 10 to 1000 nM | > 5000 nM |
| Cc1ncc(-c2cnc3ccc(C(F)F)nn23)cc1N1CCC12CCN(S(C)(=O)=O)CC2 [II-44, 6-(Difluoromethyl)-3-(6-methyl-5-(7-(methylsulfonyl)-1,7-diazaspiro[3.5]nonan-1-yl)pyridin-3-yl)imidazo[1,2-b]pyridazine] | 10 to 1000 nM | 500 to 5000 nM |
| CC1CN(c2cc(-c3cnc4ccc(C(F)F)nn34)ncn2)CC(CNS(C)(=O)=O)C1(F)F (centres unmarked) [II-45, N-((1-(6-(6-(Difluoromethyl)imidazo[1,2-b]pyridazin-3-yl)pyrimidin-4-yl)-4,4-difluoro-5-methylpiperidin-3-yl)methyl)methanesulfonamide] | < 10 nM | < 500 nM |
| O=C1NCC2CN(c3cc(-c4cnc5ccc(C(F)F)nn45)ncn3)CCN12 (centres unmarked) [II-46, 7-(6-(6-(Difluoromethyl)imidazo[1,2-b]pyridazin-3-yl)pyrimidin-4-yl)hexahydroimidazo[1,5-a]pyrazin-3(2H)-one] | 10 to 1000 nM | > 5000 nM |
| O=C1OC[C@@H]2CN(c3cc(-c4cnc5ccc(C(F)F)nn45)ncn3)CCN12 [II-47, (S)-7-(6-(6-(Difluoromethyl)imidazo[1,2-b]pyridazin-3-yl)pyrimidin-4-yl)hexahydro-3H-oxazolo[3,4-a]pyrazin-3-one] | 10 to 1000 nM | 500 to 5000 nM |
